# Reference: patent publication EP1178967B1, “QUINOLINE DERIVATIVES AS INHIBITORS OF MEK ENZYMES” (AstraZeneca AB, priority 1999, dated 2000)
# Target: human p45MEK1 (GST-MEK) (Homo sapiens, UniProt Q02750)
# Experiment: Assay for inhibitors of the MAP kinase pathway (coupled GST-MEK / GST-MAPK / MBP 33P incorporation assay)
# Type: biochemical
# Settings: GST-MEK activated by c-raf, 60min at room temperature with inhibitor, MBP substrate
# Protocol: To evaluate inhibitors of the MAPK pathway a coupled assay was carried out which measures phosphorylation of serine/threonine residues present in the substrate in the presence or absence of inhibitor. Recombinant glutathione S-transferase fusion protein containing human p45MEK1 (GST-MEK) was activated by c-raf (Sf9 insect cell lysate from triple baculoviral infection with c-raf/ras/lck) and used for the assay. Active GST-MEK was first used to activate a recombinant glutathione S-transferase fusion protein containing p44MAP kinase (GST-MAPK) in the presence of ATP and Mg^2+ for 60min at room temperature in the presence or absence of potential inhibitors. The activated GST-MAPK was then incubated with myelin basic protein (MBP) as substrate for 10min at room temperature in the presence of ATP, Mg^2+ and ^33P-ATP. The reaction was stopped by addition of 20% v/v phosphoric acid. Incorporation of ^33P into the myelin basic protein was determined by capture of the substrate on a filter mat, washing and counting using scintillation methods. The extent of inhibition was determined by comparison with untreated controls.
# The final assay solution contained 10mM Tris, pH 7.5, 0.05mM EGTA, 8.33µM [γ^33P]ATP, 8.33mM Mg(OAc)2, 0.5mM sodium orthovanadate, 0.05%w/v BSA, 6.5ng GST-MEK, 1µg GST-MAPK and 16.5µg MBP in a reaction volume of 60µl.
# human p45MEK1 (GST-MEK), sequence (Q02750 whole entry): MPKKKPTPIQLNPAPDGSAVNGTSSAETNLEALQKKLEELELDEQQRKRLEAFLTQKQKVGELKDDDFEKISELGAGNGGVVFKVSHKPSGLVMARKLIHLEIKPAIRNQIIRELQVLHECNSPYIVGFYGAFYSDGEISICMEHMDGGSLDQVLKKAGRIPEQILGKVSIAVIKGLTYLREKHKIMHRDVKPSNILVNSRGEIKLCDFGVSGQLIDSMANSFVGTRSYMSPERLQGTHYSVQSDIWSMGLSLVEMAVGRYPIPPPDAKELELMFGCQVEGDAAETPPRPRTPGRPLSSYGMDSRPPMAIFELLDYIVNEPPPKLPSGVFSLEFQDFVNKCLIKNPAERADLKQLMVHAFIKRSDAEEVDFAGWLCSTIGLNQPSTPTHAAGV
smiles,measurement,value
COc1cc2ncc(C#N)c(Nc3ccc(OCC4OCCO4)cc3)c2cc1OC [Compound No 252],IC50,150 nM
